Values joined by “and” are separate entries in the source; they are usually repeats but may differ in a detail not shown here. Identical values can stand only once. Values belong to the molecule of their own block, whether it stands above or below them.
Tested on: 156681-154-R-J1-PDC complex spheroid viability
Test: Anticancer human tumor 156681-154-R-J1-PDC patient-derived melanoma cell line growth inhibition [CLK]
Conditions: for viability, T/C: stronger effect = lower value
Procedure, shortened: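 Patient-derived tumor cells grown as complex spheroids with HUVEC endothelial cells and mesenchymal stem cells, treated with drug combinations. Concentrations descend in half-log steps from near clinical Cmax, or from 10 microM if Cmax unknown.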

[1] = curve of first compound, second compound 0.0316 µM
[2] = curve of first compound, second compound 0.1 µM
[3] = curve of first compound, second compound 0.316 µM
[4] = curve of first compound, second compound 1 µM
[5] = curve of first compound, second compound 3.16 µM
[6] = curve of first compound, second compound 10 µM
[7] = second compound 0.0316 µM, first compound 0.0316 µM
[8] = second compound 0.0316 µM, first compound 0.1 µM
[9] = second compound 0.1 µM, first compound 0.0316 µM
[10] = second compound 0.1 µM, first compound 0.1 µM
[11] = second compound 0.316 µM, first compound 0.0316 µM
[12] = second compound 0.316 µM, first compound 0.1 µM
[13] = second compound 1 µM, first compound 0.0316 µM
[14] = second compound 1 µM, first compound 0.1 µM
[15] = second compound 3.16 µM, first compound 0.0316 µM
[16] = second compound 3.16 µM, first compound 0.1 µM
[17] = second compound 10 µM, first compound 0.0316 µM
[18] = second compound 10 µM, first compound 0.1 µM
[19] = second compound 0.0316 µM, first compound 0.316 µM
[20] = second compound 0.0316 µM, first compound 1 µM
[21] = second compound 0.0316 µM, first compound 3.16 µM
[22] = second compound 0.0316 µM, first compound 10 µM
[23] = second compound 0.1 µM, first compound 0.316 µM
[24] = second compound 0.1 µM, first compound 1 µM
[25] = second compound 0.1 µM, first compound 3.16 µM
[26] = second compound 0.1 µM, first compound 10 µM
[27] = second compound 0.316 µM, first compound 0.316 µM
[28] = second compound 0.316 µM, first compound 1 µM
[29] = second compound 0.316 µM, first compound 3.16 µM
[30] = second compound 0.316 µM, first compound 10 µM
[31] = second compound 1 µM, first compound 0.316 µM
[32] = second compound 1 µM, first compound 1 µM
[33] = second compound 1 µM, first compound 3.16 µM
[34] = second compound 1 µM, first compound 10 µM
[35] = second compound 3.16 µM, first compound 0.316 µM
[36] = second compound 3.16 µM, first compound 1 µM
[37] = second compound 3.16 µM, first compound 3.16 µM
[38] = second compound 3.16 µM, first compound 10 µM
[39] = second compound 10 µM, first compound 0.316 µM
[40] = second compound 10 µM, first compound 1 µM
[41] = second compound 10 µM, first compound 3.16 µM
[42] = second compound 10 µM, first compound 10 µM
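Also: spheroids exposed to the agents for seven days.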
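For viability, T/C in this document: 100% = DMSO vehicle control viability.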

Structure (SMILES): Cn1ncnc1[C@H]1c2n[nH]c(=O)c3cc(F)cc(c23)N[C@@H]1c1ccc(F)cc1 + CN1CCN(c2cc(C(=O)Nc3cc4cc(-c5cnn(C)c5)ccc4cn3)ccn2)CC1
IC50 [1]: > 100 nM
IC50 [2]: > 100 nM
IC50 [3]: < 0.316 nM
IC50 [4]: < 0.316 nM
IC50 [5]: < 0.316 nM
IC50 [6]: < 0.316 nM
viability, T/C (second compound 0.0316 µM, first compound 0.000316 µM): 88.8%
viability, T/C (second compound 0.0316 µM, first compound 0.001 µM): 91.7%
viability, T/C (second compound 0.0316 µM, first compound 0.00316 µM): 90.5%
viability, T/C (second compound 0.0316 µM, first compound 0.01 µM): 94.8%
viability, T/C [7]: 81.8%
viability, T/C [8]: 68.7%
viability, T/C (second compound 0.1 µM, first compound 0.000316 µM): 89%
viability, T/C (second compound 0.1 µM, first compound 0.001 µM): 84.5%
viability, T/C (second compound 0.1 µM, first compound 0.00316 µM): 75.2%
viability, T/C (second compound 0.1 µM, first compound 0.01 µM): 85.7%
viability, T/C [9]: 66.1%
viability, T/C [10]: 59.6%
viability, T/C (second compound 0.316 µM, first compound 0.000316 µM): 18.9%
viability, T/C (second compound 0.316 µM, first compound 0.001 µM): 23.7%
viability, T/C (second compound 0.316 µM, first compound 0.00316 µM): 18.3%
viability, T/C (second compound 0.316 µM, first compound 0.01 µM): 17.5%
viability, T/C [11]: 20.4%
viability, T/C [12]: 18.6%
viability, T/C (second compound 1 µM, first compound 0.000316 µM): 0.18%
viability, T/C (second compound 1 µM, first compound 0.001 µM): 2.71%
viability, T/C (second compound 1 µM, first compound 0.00316 µM): 0.14%
viability, T/C (second compound 1 µM, first compound 0.01 µM): 0.17%
viability, T/C [13]: 2.08%
viability, T/C [14]: 0.69%
viability, T/C (second compound 3.16 µM, first compound 0.000316 µM): 0.14%
viability, T/C (second compound 3.16 µM, first compound 0.001 µM): 1.63%
viability, T/C (second compound 3.16 µM, first compound 0.00316 µM): 1.37%
viability, T/C (second compound 3.16 µM, first compound 0.01 µM): 0.09%
viability, T/C [15]: 1.93%
viability, T/C [16]: 0.67%
viability, T/C (second compound 10 µM, first compound 0.000316 µM): 0.13%
viability, T/C (second compound 10 µM, first compound 0.001 µM): 3.21%
viability, T/C (second compound 10 µM, first compound 0.00316 µM): 2.34%
viability, T/C (second compound 10 µM, first compound 0.01 µM): 0.36%
viability, T/C [17]: 4.58%
viability, T/C [18]: 1.43%

IC50 (curve of compound): < 0.949 nM
Structure (SMILES): CC(C)CC(NC(=O)C(Cc1ccccc1)NC(=O)c1cnccn1)B(O)O (stereo not given)
viability, T/C (compound 0.000949 µM): 26.8% and 12.1%
viability, T/C (compound 0.003 µM): 0.63% and 0.17%
viability, T/C (compound 0.00949 µM): 0.23% and 0.71%
viability, T/C (compound 0.03 µM): 0.23% and 2.41%
viability, T/C (compound 0.0949 µM): 0.31% and 0.16%
viability, T/C (compound 0.3 µM): 2.09% and 0.42%

IC50 [1]: 452 nM
IC50 [2]: 399 nM
IC50 [3]: 49.4 nM
IC50 [4]: < 31.6 nM
IC50 [5]: < 31.6 nM
IC50 [6]: < 31.6 nM
Structure (SMILES): CC(Nc1ccc2c(c1)OCCn1cc(N3C(=O)OCC3C(F)F)nc1-2)C(N)=O (stereo not given) + CNC(=O)c1ccc(Nc2nc(OC3CCCC3)c3c(-c4ccc5nc(C)oc5c4)c[nH]c3n2)c(OC)c1
viability, T/C [7]: 76.8%
viability, T/C [8]: 61%
viability, T/C [19]: 44.5%
viability, T/C [20]: 53.9%
viability, T/C [21]: 33.1%
viability, T/C [22]: 23.1%
viability, T/C [9]: 49.9%
viability, T/C [10]: 64.9%
viability, T/C [23]: 47.7%
viability, T/C [24]: 43%
viability, T/C [25]: 26.4%
viability, T/C [26]: 19.2%
viability, T/C [11]: 52.7%
viability, T/C [12]: 47%
viability, T/C [27]: 34.1%
viability, T/C [28]: 27.9%
viability, T/C [29]: 24.6%
viability, T/C [30]: 15.8%
viability, T/C [13]: 47.5%
viability, T/C [14]: 30%
viability, T/C [31]: 28.1%
viability, T/C [32]: 24.3%
viability, T/C [33]: 19.3%
viability, T/C [34]: 8.72%
viability, T/C [15]: 48.3%
viability, T/C [16]: 36.1%
viability, T/C [35]: 27.2%
viability, T/C [36]: 18.9%
viability, T/C [37]: 10.7%
viability, T/C [38]: 8.42%
viability, T/C [17]: 33.4%
viability, T/C [18]: 29.9%
viability, T/C [39]: 18.1%
viability, T/C [40]: 17.7%
viability, T/C [41]: 13.9%
viability, T/C [42]: 7.86%

Structure (SMILES): CC(=O)O[C@H]1C(=O)[C@@]2(C)[C@H]([C@H](OC(=O)c3ccccc3)[C@]3(O)C[C@H](OC(=O)[C@H](O)[C@@H](NC(=O)c4ccccc4)c4ccccc4)C(C)=C1C3(C)C)[C@]1(OC(C)=O)CO[C@@H]1C[C@@H]2O + CN1CCN(c2cc(C(=O)Nc3cc4cc(-c5cnn(C)c5)ccc4cn3)ccn2)CC1
IC50 [1]: < 31.6 nM
IC50 [2]: < 31.6 nM
IC50 [3]: < 31.6 nM
IC50 [4]: < 31.6 nM
IC50 [5]: < 31.6 nM
IC50 [6]: < 31.6 nM
viability, T/C [7]: 19.4%
viability, T/C [8]: 13.1%
viability, T/C [19]: 18.9%
viability, T/C [20]: 16.5%
viability, T/C [21]: 23.6%
viability, T/C [22]: 28.9%
viability, T/C [9]: 17.6%
viability, T/C [10]: 14.6%
viability, T/C [23]: 15.4%
viability, T/C [24]: 12.5%
viability, T/C [25]: 16.3%
viability, T/C [26]: 24.3%
viability, T/C [11]: 15.1%
viability, T/C [12]: 21.1%
viability, T/C [27]: 13.8%
viability, T/C [28]: 13%
viability, T/C [29]: 14.8%
viability, T/C [30]: 16.8%
viability, T/C [13]: 0.09%
viability, T/C [14]: 0.13%
viability, T/C [31]: 0.13%
viability, T/C [32]: 0.34%
viability, T/C [33]: 0.12%
viability, T/C [34]: 0.13%
viability, T/C [15]: 0.09%
viability, T/C [16]: 0.74%
viability, T/C [35]: 0.35%
viability, T/C [36]: 0.08%
viability, T/C [37]: 0.23%
viability, T/C [38]: 0.22%
viability, T/C [17]: 0.09%
viability, T/C [18]: 0.7%
viability, T/C [39]: 0.46%
viability, T/C [40]: 0.52%
viability, T/C [41]: 0.61%
viability, T/C [42]: 0.3%

Structure (SMILES): COc1ccc([C@@H](O)c2cc(-c3ncnc4cc(N5CCOCC5)ccc34)c(F)cc2Cl)nn1 + CN1CCN(c2cc(C(=O)Nc3cc4cc(-c5cnn(C)c5)ccc4cn3)ccn2)CC1
IC50 [1]: 2400 nM
IC50 [2]: 1450 nM
IC50 [3]: < 31.6 nM
IC50 [4]: < 31.6 nM
IC50 [5]: < 31.6 nM
IC50 [6]: < 31.6 nM
viability, T/C [7]: 109%
viability, T/C [8]: 88.3%
viability, T/C [19]: 91.3%
viability, T/C [20]: 63.6%
viability, T/C [21]: 45.3%
viability, T/C [22]: 19.2%
viability, T/C [9]: 97.5%
viability, T/C [10]: 84%
viability, T/C [23]: 73.5%
viability, T/C [24]: 58.2%
viability, T/C [25]: 35%
viability, T/C [26]: 16.8%
viability, T/C [11]: 15.7%
viability, T/C [12]: 16.9%
viability, T/C [27]: 14.8%
viability, T/C [28]: 13%
viability, T/C [29]: 8.38%
viability, T/C [30]: 2.77%
viability, T/C [13]: 0.13%
viability, T/C [14]: 2%
viability, T/C [31]: 1.91%
viability, T/C [32]: 0.33%
viability, T/C [33]: 1.72%
viability, T/C [34]: 2.7%
viability, T/C [15]: 0.06%
viability, T/C [16]: 1.44%
viability, T/C [35]: 0.99%
viability, T/C [36]: 0.08%
viability, T/C [37]: 3.19%
viability, T/C [38]: 0.56%
viability, T/C [17]: 0.06%
viability, T/C [18]: 2.47%
viability, T/C [39]: 1.95%
viability, T/C [40]: 0.88%
viability, T/C [41]: 2.45%
viability, T/C [42]: 0.51%
